The values that follow come from patent US12403184B2, “Compositions and methods for treating neurodegenerative disroders” (priority 2018, dated 2025).

Assay [1] has as its target T1, ATAD3A (Homo sapiens, UniProt Q9NVI7, K135E).
T1 construct: expressed in transfected cells; host or cells: HEK293 cells
T1 sequence (Q9NVI7 51-586 K135E limits assumed): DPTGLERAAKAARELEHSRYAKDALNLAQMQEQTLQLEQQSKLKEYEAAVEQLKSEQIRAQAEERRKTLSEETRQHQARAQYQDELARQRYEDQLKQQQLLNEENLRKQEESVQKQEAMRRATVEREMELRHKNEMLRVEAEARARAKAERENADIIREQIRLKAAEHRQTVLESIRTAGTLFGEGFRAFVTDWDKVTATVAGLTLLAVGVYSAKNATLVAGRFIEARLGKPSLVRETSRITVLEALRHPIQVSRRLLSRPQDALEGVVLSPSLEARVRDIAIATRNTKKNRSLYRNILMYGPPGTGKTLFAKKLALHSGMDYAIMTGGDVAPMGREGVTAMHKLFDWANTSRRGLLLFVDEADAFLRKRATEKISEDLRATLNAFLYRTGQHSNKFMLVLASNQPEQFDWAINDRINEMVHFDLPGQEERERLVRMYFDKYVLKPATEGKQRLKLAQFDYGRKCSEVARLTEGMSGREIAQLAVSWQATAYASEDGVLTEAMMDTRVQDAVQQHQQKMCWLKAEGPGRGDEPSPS
Description: ATAD3A dimerization by western blot, HEK293 cells. It counts as cell-based. From the text:
Human ATAD3A was amplified from HEK293T cDNA samples through standard PCR methods, and then cloned into pCMV-Myc, pcDNA3.1 (+)-Flag, pEGFP-N1 vectors. ATAD3A truncated mutants were constructed using overlap cloning techniques. ATAD3A point mutant K358E, and K135 mutants (K135E, K135R, K135Q, and K135A) and S2S48 mutants were constructed by using QuickChange II Site-Directed Mutagenesis Kit (Agilent Technologies). Drp1 truncated mutants were described in our previous study. Cells were transfected with plasmids using TransIT®-2020 transfection reagent (Minis Bio LLC, Madison, WI) according to manufacturer's instruction.
(§1) To analyze dimerization of ATAD3A under non-reducing conditions, the cells or tissues were harvested and lysed with total lysates buffer. An equal amount of proteins was subject to 8% SDS-PAGE analysis in the presence or absence of β-mercaptoethanol (β-ME). For in vitro BMH crosslinking, the cell lysates were incubated with 1 mM BMH at r.t. for up to 25 min and quenched with 0.1% β-ME, followed by SDS-PAGE analysis. For in-vivo crosslinking, the cells were treated with cell-permeable crosslinker BMH (1 mM) for 20 min at 37° C. After crosslinking, the cells were quenched in PBS with 0.1% β-ME. For DSP crosslinking, the cells were treated with cell-permeable crosslinker for 5 min at 37° C., followed by quenching and washing with 10 mM Glycine in PBS. For formaldehyde (FA) crosslinking, the cells were incubated with PBS buffer containing 1% FA for 20 min at r.t., and the crosslinking reaction was terminated by washing in PBS containing 100 mM glycine. The cells were then lysed and subject to 8% SDS-PAGE analysis. For DTSSP crosslinking of proteins in mitochondrial fractions, isolated mitochondria samples were suspended in the mitochondrial lysis buffer (250 mM sucrose, 20 mM HEPES-NaOH, pH 7.5, 10 mM KCl, 1.5 mM MgCl2, 1 mM EDTA, 1 mM EGTA and protease inhibitor). An equal amount of crude mitochondria was incubated at 30° C. in the presence of 0.5 mM DTSSP. The cross-linking was terminated by the addition of SDS loading buffer. […]

Assay [2] addresses T2, ATAD3A (Mus musculus, UniProt Q925I1).
T2 construct: endogenous in cells; host or cells: Neuro2A cells
T2 sequence (Q925I1 1-591): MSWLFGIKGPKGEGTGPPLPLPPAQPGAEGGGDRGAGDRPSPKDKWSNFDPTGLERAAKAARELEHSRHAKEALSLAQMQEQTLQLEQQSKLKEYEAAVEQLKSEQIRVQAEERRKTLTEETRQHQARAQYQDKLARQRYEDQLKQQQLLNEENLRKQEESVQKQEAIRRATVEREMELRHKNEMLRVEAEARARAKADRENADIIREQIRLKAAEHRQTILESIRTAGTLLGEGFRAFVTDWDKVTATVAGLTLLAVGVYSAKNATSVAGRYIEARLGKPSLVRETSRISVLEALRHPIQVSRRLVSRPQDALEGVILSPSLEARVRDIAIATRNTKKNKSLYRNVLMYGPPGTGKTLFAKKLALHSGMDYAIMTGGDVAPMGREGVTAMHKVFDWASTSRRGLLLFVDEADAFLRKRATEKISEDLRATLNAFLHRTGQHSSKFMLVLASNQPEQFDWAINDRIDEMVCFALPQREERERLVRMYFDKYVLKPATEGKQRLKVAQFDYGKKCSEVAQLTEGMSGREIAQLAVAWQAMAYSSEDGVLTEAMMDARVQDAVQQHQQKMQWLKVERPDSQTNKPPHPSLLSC
Description: ATAD3A dimerization by western blot, Neuro2A cells. The assay is classed as cell-based. The settings on record: Neuro2A cells exposed to 3-NP (5 mM, 7 hours), DA1 1 μM overnight. On the procedure:
as §1, with “DTSSP.” for “DTSSP. The cross-linking was terminated by the addition of SDS loading buffer.”

The subject of assay [3] is Drp1 with its mitochondrial adaptors Mff, Fis1 and MIEF1. Description: Immunoprecipitation of Drp1 with mitochondrial adaptors after crosslinking. The assay is classed as cell-based, mouse. The settings on record: HdhQ111 cells, 1 μM/day for 4 days. The procedure: For Drp1-Mff or Drp-MiD51 (MIEF1) interaction, the cells were cross-linked by […] for 10 min at r.t., then […] in PBS was added to quench the redundant DSP activity. For Drp1-Fis1 interaction, the cells were cross-linked by 1% FA for 20 min at r.t., then added […] in PBS to quench the redundant activity. The cells were washed with PBS, sonicated, and lysed with 1% Triton X-100 total lysis buffer.

Where no end group is shown, it is not given here.

Consider “YGRKKRRQRRRGGEDKRKT-NH2 [DA1, YGRKKRRQRRR-GG-EDKRKT-NH2]”, for which the “dimerization of ATAD3A” value at ATAD3A [1] (HEK293 cells expressing ATAD3A acetyl-deficient mutant K135E) is “abolished”; at ATAD3A [1] (HEK293 cells expressing ATAD3A ΔN50 mutant, 1 μM for 48 h), “abolished”; on ATAD3A [1] (normal cells or cells expressing ATAD3A wildtype), “minor effect”; at ATAD3A [2], “abolished”. For the same substance, the “interactions of Drp1 with its mitochondrial adaptors Mff, Fis1 and MIEF1” value in assay [3] is “did not influence”.
